# Test results reported in patent US11453652B2, “Di-macrocycles” (LUMIPHORE, INC., priority 2013, dated 2022).
# {AmC3} = aminopropyl group
# Assay: Gel electrophoresis mobility shift assay of metal cation complexation
# Format: binding
# Conditions: 20% polyacrylamide gel, 8M urea; incubated 55° C. 15 minutes, HEPES pH 7.5; compared with no metal cation
# Experimental: For use in certain applications, such as acting as a bifunctional chelating agent to attach a radioisotope to a site-directing molecule, it is necessary that the chelator be able to coordinate to the metal ion of interest in a kinetically facile and thermodynamically stable manner. […] In this experiment, a conjugate of 12 with a small (18 base length) DNA oligomer, 15 was treated with a solution containing a metal cation. The electrophoretic mobility of the conjugate on a polyacrylamide gel was then compared with that of the conjugate which was not exposed to the solution of metal cation. […] The gel electrophoretic mobility of the DNA oligomer 14 that was not conjugated to 12, present in the solution of 15, was also compared with and without exposure to the metal cation solution.
# C=control, no metal cations. Y, Eu, Tb, Zr, Th=yttrium(III), europium(III), terbium(III), zirconium(IV), and thorium(IV), respectively. Arrow indicates luminescent band observed under hand held ultraviolet lamp.
# In particular, a solution of DNA oligomer (3 μL, 33 μM, all concentrations final) was mixed with a solution of metal cation (2 μL, 625 μM) or an equal volume of water, additional water (2.5 μL) and a buffer solution (2.5 μL, 50 mM HEPES, pH 7.5). […]
row,Substance,electrophoretic mobility following treatment with the metal cation solution
1,"Conjugate 15: conjugate of di-macrocycle 12 with 18-base DNA oligonucleotide 14 (DNA AAGGTCATCCATGACAAC; DNA, backbone and methylation of C not given here; di-macrocycle 12 conjugated)",migrates more slowly
2,"unmodified oligonucleotide: DNA 18-base oligonucleotide 5′-AAGGTCATCCATGACAAC-3′ with 5′-aminopropyl group, not conjugated to 12 (DNA, 5' {AmC3}, backbone and methylation of C not given here)",unaffected
